Laboratory results: patent US9993494B2, “Compositions and methods for treating fibrotic disease” (eFFECTOR Therapeutics, Inc., priority 2014, dated 2018)

System: normal human lung fibroblasts
Test: Ribosomal profiling: translational efficiency in TGFβ-treated fibroblasts
Assay type: cell-based
Outline: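 Genome-wide RPF and total RNA libraries (ARTseq, RNA-Seq) were made from lysates of cycloheximide-treated, PBS-washed cells. After trimming and human-genome mapping, per-gene coding-region counts were compared between RPF and RNA for translational efficiency. Genes scoring low in either fraction were dropped.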

## TGFβ
ENSG00000115392, 5 replicates
  Log2 TE FANCL: −1.233
ENSG00000115594, 5 replicates
  Log2 TE IL1R1: −1.003
ENSG00000117461, 5 replicates
  Log2 TE PIK3R3: −1.0571
ENSG00000117543, 5 replicates
  Log2 TE DPH5: 1.114
ENSG00000117543, Control vs. TGFβ
  change in translational profile of DPH5 caused by TGFβ: D (D = <1.0 to 1.5)
ENSG00000117724, 5 replicates
  Log2 TE CENPF: −1.237
ENSG00000118181, 5 replicates
  Log2 TE RPS25: 1.697
ENSG00000118473, 5 replicates
  Log2 TE SGIP1: −2.768
ENSG00000118898, 5 replicates
  Log2 TE PPL: −1.54
ENSG00000118898, Control vs. TGFβ
  change in translational profile of PPL caused by TGFβ: B (B = <−1.5 to −2.5)
ENSG00000119508, 5 replicates
  Log2 TE NR4A3: −1.931
ENSG00000120156, 5 replicates
  Log2 TE TEK: −1.652
ENSG00000120278, Control vs. TGFβ
  change in translational profile of PLEKHG1 caused by TGFβ: B (B = <−1.5 to −2.5)
ENSG00000121897, Control vs. TGFβ
  change in translational profile of LIAS caused by TGFβ: D (D = <1.0 to 1.5)
ENSG00000121957, 5 replicates
  Log2 TE GPSM2: −1.408
ENSG00000121957, Control vs. TGFβ
  change in translational profile of GPSM2 caused by TGFβ: B (B = <−1.5 to −2.5)
ENSG00000122026, Control vs. TGFβ
  change in translational profile of RPL21 caused by TGFβ: E (E = <1.5 to 2.5)
ENSG00000122406, 5 replicates
  Log2 TE RPL5: 1.593
ENSG00000122406, Control vs. TGFβ
  change in translational profile of RPL5 caused by TGFβ: E (E = <1.5 to 2.5)
ENSG00000122641, Control vs. TGFβ
  change in translational profile of INHBA caused by TGFβ: D (D = <1.0 to 1.5)
ENSG00000122966, 5 replicates
  Log2 TE CIT: −3.084
ENSG00000122966, Control vs. TGFβ
  change in translational profile of CIT caused by TGFβ: A (A = <−2.5)
ENSG00000124406, 5 replicates
  Log2 TE ATP8A1: −2.122
ENSG00000124496, 5 replicates
  Log2 TE TRERF1: −1.891
ENSG00000124614, 5 replicates
  Log2 TE RPS10: 1.211
ENSG00000124749, 5 replicates
  Log2 TE COL21A1: −1.445
ENSG00000125375, 5 replicates
  Log2 TE ATP5S: 1.075
ENSG00000125691, 5 replicates
  Log2 TE RPL23: 1.604
ENSG00000125691, Control vs. TGFβ
  change in translational profile of RPL23 caused by TGFβ: E (E = <1.5 to 2.5)
ENSG00000125744, 5 replicates
  Log2 TE RTN2: −1.143
ENSG00000125869, 5 replicates
  Log2 TE LAMP5: 1.298
ENSG00000125869, Control vs. TGFβ
  change in translational profile of LAMP5 caused by TGFβ: E (E = <1.5 to 2.5)
ENSG00000125967, 5 replicates
  Log2 TE NECAB3: 1.403
ENSG00000125967, Control vs. TGFβ
  change in translational profile of NECAB3 caused by TGFβ: E (E = <1.5 to 2.5)
ENSG00000127184, Control vs. TGFβ
  change in translational profile of COX7C caused by TGFβ: D (D = <1.0 to 1.5)
ENSG00000127863, 5 replicates
  Log2 TE TNFRSF19: −1.093
ENSG00000128016, 5 replicates
  Log2 TE ZFP36: 1.188
ENSG00000128342, Control vs. TGFβ
  change in translational profile of LIF caused by TGFβ: D (D = <1.0 to 1.5)
ENSG00000128394, 5 replicates
  Log2 TE APOBEC3F: −1.127
ENSG00000128602, 5 replicates
  Log2 TE SMO: −1.254
ENSG00000128849, 5 replicates
  Log2 TE CGNL1: −1.023
ENSG00000129226, 5 replicates
  Log2 TE CD68: 1.048
ENSG00000129422, 5 replicates
  Log2 TE MTUS1: −1.149
ENSG00000129422, Control vs. TGFβ
  change in translational profile of MTUS1 caused by TGFβ: B (B = <−1.5 to −2.5)
ENSG00000129675, 5 replicates
  Log2 TE ARHGEF6: −1.1
ENSG00000129675, Control vs. TGFβ
  change in translational profile of ARHGEF6 caused by TGFβ: C (C = <−1.0 to −1.5)
ENSG00000130255, 5 replicates
  Log2 TE RPL36: 1.411
ENSG00000130255, Control vs. TGFβ
  change in translational profile of RPL36 caused by TGFβ: E (E = <1.5 to 2.5)
ENSG00000130513, Control vs. TGFβ
  change in translational profile of GDF15 caused by TGFβ: D (D = <1.0 to 1.5)
ENSG00000130707, Control vs. TGFβ
  change in translational profile of ASS1 caused by TGFβ: D (D = <1.0 to 1.5)
ENSG00000130741, 5 replicates
  Log2 TE EIF2S3: 1.067
ENSG00000130741, Control vs. TGFβ
  change in translational profile of EIF2S3 caused by TGFβ: D (D = <1.0 to 1.5)
ENSG00000131469, 5 replicates
  Log2 TE RPL27: 1.519
ENSG00000131469, Control vs. TGFβ
  change in translational profile of RPL27 caused by TGFβ: E (E = <1.5 to 2.5)
ENSG00000131747, 5 replicates
  Log2 TE TOP2A: −1.314
ENSG00000132031, 5 replicates
  Log2 TE MATN3: 1.34
ENSG00000132031, Control vs. TGFβ
  change in translational profile of MATN3 caused by TGFβ: D (D = <1.0 to 1.5)
ENSG00000132122, 5 replicates
  Log2 TE SPATA6: −1.925
ENSG00000132170, 5 replicates
  Log2 TE PPARG: −3.52
ENSG00000132170, Control vs. TGFβ
  change in translational profile of PPARG caused by TGFβ: A (A = <−2.5)
ENSG00000132510, 5 replicates
  Log2 TE KDM6B: 1.603
ENSG00000132510, Control vs. TGFβ
  change in translational profile of KDM6B caused by TGFβ: E (E = <1.5 to 2.5)
ENSG00000133321, 5 replicates
  Log2 TE RARRES3: −1.995
ENSG00000133321, Control vs. TGFβ
  change in translational profile of RARRES3 caused by TGFβ: B (B = <−1.5 to −2.5)
ENSG00000133687, 5 replicates
  Log2 TE TMTC1: −1.907
ENSG00000134419, 5 replicates
  Log2 TE RPS15A: 2.195
ENSG00000134532, 5 replicates
  Log2 TE SOX5: −1.667
ENSG00000134897, Control vs. TGFβ
  change in translational profile of BIVM caused by TGFβ: B (B = <−1.5 to −2.5)
ENSG00000135390, 5 replicates
  Log2 TE ATP5G2: 1.381
ENSG00000135390, Control vs. TGFβ
  change in translational profile of ATP5G2 caused by TGFβ: E (E = <1.5 to 2.5)
ENSG00000135480, 5 replicates
  Log2 TE KRT7: 2
ENSG00000135480, Control vs. TGFβ
  change in translational profile of KRT7 caused by TGFβ: E (E = <1.5 to 2.5)
ENSG00000135486, 5 replicates
  Log2 TE HNRNPA1: 1.086
ENSG00000135486, Control vs. TGFβ
  change in translational profile of HNRNPA1 caused by TGFβ: D (D = <1.0 to 1.5)
ENSG00000135749, 5 replicates
  Log2 TE PCNXL2: −1.261
ENSG00000136040, 5 replicates
  Log2 TE PLXNC1: −1.0996
ENSG00000136244, 5 replicates
  Log2 TE IL6: 1.369
ENSG00000136244, Control vs. TGFβ
  change in translational profile of IL6 caused by TGFβ: E (E = <1.5 to 2.5)
ENSG00000136942, 5 replicates
  Log2 TE RPL35: 1.28
ENSG00000136942, Control vs. TGFβ
  change in translational profile of RPL35 caused by TGFβ: E (E = <1.5 to 2.5)
ENSG00000136999, Control vs. TGFβ
  change in translational profile of NOV caused by TGFβ: C (C = <−1.0 to −1.5)
ENSG00000137033, 5 replicates
  Log2 TE IL33: −2.488
ENSG00000137154, 5 replicates
  Log2 TE RPS6: 1.598
ENSG00000137331, 5 replicates
  Log2 TE IER3: 1.702
ENSG00000137331, Control vs. TGFβ
  change in translational profile of IER3 caused by TGFβ: E (E = <1.5 to 2.5)
ENSG00000137628, 5 replicates
  Log2 TE DDX60: −1.211
ENSG00000137628, Control vs. TGFβ
  change in translational profile of DDX60 caused by TGFβ: C (C = <−1.0 to −1.5)
ENSG00000137818, 5 replicates
  Log2 TE RPLP1: 1.461
ENSG00000137818, Control vs. TGFβ
  change in translational profile of RPLP1 caused by TGFβ: E (E = <1.5 to 2.5)
ENSG00000137819, 5 replicates
  Log2 TE PAQR5: −1.445
ENSG00000137819, Control vs. TGFβ
  change in translational profile of PAQR5 caused by TGFβ: B (B = <−1.5 to −2.5)
ENSG00000138134, 5 replicates
  Log2 TE STAMBPL1: −1.139
ENSG00000138182, 5 replicates
  Log2 TE KIF20B: −1.281
ENSG00000138326, 5 replicates
  Log2 TE RPS24: 1.444
ENSG00000138336, 5 replicates
  Log2 TE TET1: 1.853
ENSG00000138356, 5 replicates
  Log2 TE AOX1: −1.143
ENSG00000138356, Control vs. TGFβ
  change in translational profile of AOX1 caused by TGFβ: B (B = <−1.5 to −2.5)
ENSG00000138386, 5 replicates
  Log2 TE NAB1: −1.01
ENSG00000138449, 5 replicates
  Log2 TE SLC40A1: 1.114
ENSG00000138675, 5 replicates
  Log2 TE FGF5: −1.163
ENSG00000138675, Control vs. TGFβ
  change in translational profile of FGF5 caused by TGFβ: B (B = <−1.5 to −2.5)
ENSG00000138735, 5 replicates
  Log2 TE PDE5A: −1.594
ENSG00000138735, Control vs. TGFβ
  change in translational profile of PDE5A caused by TGFβ: B (B = <−1.5 to −2.5)
ENSG00000139132, 5 replicates
  Log2 TE FGD4: −1.142
ENSG00000139209, 5 replicates
  Log2 TE SLC38A4: −1.142
ENSG00000139354, 5 replicates
  Log2 TE GAS2L3: −2.342
ENSG00000139354, Control vs. TGFβ
  change in translational profile of GAS2L3 caused by TGFβ: A (A = <−2.5)
ENSG00000139372, 5 replicates
  Log2 TE TDG: 1.025
ENSG00000139734, 5 replicates
  Log2 TE DIAPH3: 1.659
ENSG00000139734, Control vs. TGFβ
  change in translational profile of DIAPH3 caused by TGFβ: E (E = <1.5 to 2.5)
ENSG00000140988, 5 replicates
  Log2 TE RPS2: 1.607
ENSG00000141140, Control vs. TGFβ
  change in translational profile of MYO19 caused by TGFβ: D (D = <1.0 to 1.5)
ENSG00000141837, 5 replicates
  Log2 TE CACNA1A: −1.055
ENSG00000142534, 5 replicates
  Log2 TE RPS11: 1.314
ENSG00000142541, 5 replicates
  Log2 TE RPL13A: 1.797
ENSG00000142541, Control vs. TGFβ
  change in translational profile of RPL13A caused by TGFβ: E (E = <1.5 to 2.5)
ENSG00000142676, 5 replicates
  Log2 TE RPL11: 1.396
ENSG00000142676, Control vs. TGFβ
  change in translational profile of RPL11 caused by TGFβ: E (E = <1.5 to 2.5)
